The values below come from patent publication US20200255828A1, “METHODS AND COMPOSITIONS FOR ALTERING FUNCTION AND STRUCTURE OF CHROMATIN LOOPS AND/OR DOMAINS” (THE BROAD INSTITUTE, INC., priority 2017, published 2020).

Entries after “also recorded” stand apart in the source; their conditions may differ.

In test [1] the test system is HCT-116 cells. Kind of test: Loop reformation (Hi-C APA) after Rad21 degradation and recovery without transcription, replication or ATP. The format is cell-based, human. As to conditions: Rad21 temporarily degraded and allowed to recover. The source says:
Using the degron system, Applicants can directly measure the influence of cellular processes on loop formation (Vian et al, 2018). […] Applicants also tested interchromasomal cohesin-independent links requirement for ATP after cohesin degradation and observed that depletion of ATP strengthens the interactions between superenhancers (FIG. 23).

Test [2] concerns CTCF-AID cells. Briefly: Rescue experiments in the CTCF-AID cell line (Hi-C). In kind it is cell-based, human. As to conditions: endogenous CTCF degraded by auxin. The text has this:
The protein CTCF is thought to act as an oriented brake to halt cohesin-mediated loop extrusion in one direction along the genome but not the other, but how this braking activity is mediated mechanistically is unknown. An important question regarding CTCF barrier activity is whether there is a protein domain mediating the ability to halt extrusion or whether CTCF halts cohesin via steric occlusion. As a proof of principle, Applicants introduced either (i) WT CTCF, (ii) CTCF lacking its N terminal domain, or (iii) CTCF lacking its C terminal domain by transfection into CTCF-AID cells. […] Applicants can systematically identify the key residues in the N terminus of CTCF that are necessary for barrier activity by transfecting plasmids expressing mutant CTCF proteins with tiled mutations on the N terminus and assaying via Hi-C after degradation of endogenous CTCF. Similarly, Applicants can develop HCT-116 degron lines for SA1, SA2, and SA1+SA2 double degron (the cohesin ring co-factors that are thought to mediate the interaction between cohesin and CTCF). By depleting endogenous SA protein, introducing SA proteins with tiled mutations across various domains, and assaying looping via Hi-C, Applicants can similarly identify the residues on the cohesin complex required for interaction with CTCF. […]

On to `CN1CC[C@H](c2c(O)cc(O)c3c(=O)cc(-c4ccccc4Cl)oc23)[C@H](O)C1` [flavopiridol], for which the “effect on loop formation during Rad21 recovery” value in test [1] is “does not block loop formation; also recorded: loop reformation occurs without issue”. Still for that read-out and setting: the same measure for `CC[C@H]1/C=C/C=C/C[C@@H](C)[C@H](O)[C@@](C)(O)C(=O)[C@@H](C)[C@H](O)[C@@H](C)C(=O)[C@@H](C)[C@H](O)[C@@H](C)/C=C/C(=O)O[C@@H]2[C@H](C)[C@H](CC1)O[C@]1(CC[C@H](C)[C@H](C[C@@H](C)O)O1)[C@H]2C` [oligomycin]: “does block loop formation; also recorded: loop formation requires ATP”; for `Cc1cn([C@H]2C[C@H](O)[C@@H](CO)O2)c(=O)[nH]c1=O` [thymidine]: “does not block loop formation; also recorded: loop reformation occurs without issue”.

B1: WT CTCF: wild-type CTCF introduced by transfection into CTCF-AID cells (protein)
chain: MEGDAVEAIVEESETFIKGKERKTYQRRREGGQEEDACHLPQNQTDGGEVVQDVNSSVQMVMMEQLDPTLLQMKTEVMEGTVAPEAEAAVDDTQIITLQVVNMEEQPINIGELQLVQVPVPVTVPVATTSVEELQGAYENEVSKEGLAESEPMICHTLPLPEGFQVVKVGANGEVETLEQGELPPQEDPSWQKDPDYQPPAKKTKKTKKSKLRYTEEGKDVDVSVYDFEEEQQEGLLSEVNAEKVVGNMKPPKPTKIKKKGVKKTFQCELCSYTCPRRSNLDRHMKSHTDERPHKCHLCGRAFRTVTLLRNHLNTHTGTRPHKCPDCDMAFVTSGELVRHRRYKHTHEKPFKCSMCDYASVEVSKLKRHIRSHTGERPFQCSLCSYASRDTYKLKRHMRTHSGEKPYECYICHARFTQSGTMKMHILQKHTENVAKFHCPHCDTVIARKSDLGVHLRKQHSYIEQGKKCRYCDAVFHERYALIQHQKSHKNEKRFKCDQCDYACRQERHMIMHKRTHTGEKPYACSHCDKTFRQKQLLDMHFKRYHDPNFVPAAFVCSKCGKTFTRRNTMARHADNCAGPDGVEGENGGETKKSKRGRKRKMRSKKEDSSDSENAEPDLDDNEDEEEPAVEIEPEPEPQPVTPAPPPAKKRRGRPPGRTNQPKQNQPTAIIQVEDQNTGAIENIIVEVKKEPDAEPAEGEEEEAQPAATDAPNGDLTPEMILSMMDR
For the molecule B1, the “rescue of the looping phenotype” value in test [2] is “rescue the looping phenotype”.
